From ChEMBL document CHEMBL2163248, “Classification of inhibitors of hepatic organic anion transporting polypeptides (OATPs): influence of protein expression on drug-drug interactions” (J Med Chem, 2012)

Tests used:
[1] = molecular target: T1, Solute carrier organic anion transporter family member 2B1 (Homo sapiens, UniProt O94956); experiment: Inhibition of human liver OATP2B1 expressed in HEK293 Flp-In cells assessed as reduction in [3H]E3S uptake at 20 uM incubated for 5 mins by scintillation counting; conditions: hek293, 5 min
T1 sequence (O94956 whole entry): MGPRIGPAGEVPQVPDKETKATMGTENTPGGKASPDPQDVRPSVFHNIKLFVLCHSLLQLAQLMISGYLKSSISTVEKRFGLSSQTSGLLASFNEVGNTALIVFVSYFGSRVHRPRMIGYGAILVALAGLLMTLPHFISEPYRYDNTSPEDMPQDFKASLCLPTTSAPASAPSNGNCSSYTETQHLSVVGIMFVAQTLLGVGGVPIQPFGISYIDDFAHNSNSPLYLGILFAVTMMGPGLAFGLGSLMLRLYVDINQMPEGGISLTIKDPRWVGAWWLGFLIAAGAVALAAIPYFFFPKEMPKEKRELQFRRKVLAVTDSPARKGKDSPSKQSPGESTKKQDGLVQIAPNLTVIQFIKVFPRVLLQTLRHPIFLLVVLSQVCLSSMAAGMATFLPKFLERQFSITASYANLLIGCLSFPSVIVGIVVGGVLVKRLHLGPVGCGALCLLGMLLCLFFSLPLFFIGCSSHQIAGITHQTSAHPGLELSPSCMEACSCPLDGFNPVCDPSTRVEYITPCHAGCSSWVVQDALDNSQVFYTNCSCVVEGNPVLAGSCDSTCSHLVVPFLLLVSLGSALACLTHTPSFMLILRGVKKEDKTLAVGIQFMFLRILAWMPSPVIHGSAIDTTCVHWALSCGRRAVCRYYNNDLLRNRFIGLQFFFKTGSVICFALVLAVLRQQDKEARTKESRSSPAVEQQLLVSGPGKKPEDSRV

[2] = molecular target: T2, Solute carrier organic anion transporter family member 1B3 (Homo sapiens, UniProt Q9NPD5); experiment: Inhibition of human liver OATP1B3 expressed in HEK293 Flp-In cells assessed as reduction in [3H]E17-betaG uptake at 20 uM incubated for 5 mins by scintillation counting; conditions: hek293, 5 min
T2 sequence (Q9NPD5 whole entry): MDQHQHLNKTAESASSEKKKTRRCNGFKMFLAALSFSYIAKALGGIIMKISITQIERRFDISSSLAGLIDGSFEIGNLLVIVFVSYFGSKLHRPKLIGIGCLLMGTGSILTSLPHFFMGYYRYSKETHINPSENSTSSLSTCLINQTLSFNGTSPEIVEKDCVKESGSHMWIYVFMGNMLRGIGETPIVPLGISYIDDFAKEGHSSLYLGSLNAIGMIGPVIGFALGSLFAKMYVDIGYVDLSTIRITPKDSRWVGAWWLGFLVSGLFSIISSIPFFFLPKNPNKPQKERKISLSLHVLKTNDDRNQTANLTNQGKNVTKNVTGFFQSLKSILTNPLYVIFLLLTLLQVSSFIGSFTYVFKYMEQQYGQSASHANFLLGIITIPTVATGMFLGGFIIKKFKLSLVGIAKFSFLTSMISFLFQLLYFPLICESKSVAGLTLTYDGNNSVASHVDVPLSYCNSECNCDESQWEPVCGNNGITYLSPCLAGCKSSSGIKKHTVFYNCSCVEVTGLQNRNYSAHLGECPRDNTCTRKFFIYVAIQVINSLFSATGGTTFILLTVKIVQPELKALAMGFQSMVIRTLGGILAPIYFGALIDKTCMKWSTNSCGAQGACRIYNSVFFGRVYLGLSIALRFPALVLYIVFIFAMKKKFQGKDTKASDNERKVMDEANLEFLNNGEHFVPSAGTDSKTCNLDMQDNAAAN

OATP1B1 = molecular target: T3, OATP1B1 (Homo sapiens, UniProt Q9Y6L6); experiment: (§1) Inhibition of human liver OATP1B1 expressed in HEK293 Flp-In cells assessed as reduction in E17-betaG uptake at 20 uM by scintillation counting
T3 sequence (Q9Y6L6 whole entry): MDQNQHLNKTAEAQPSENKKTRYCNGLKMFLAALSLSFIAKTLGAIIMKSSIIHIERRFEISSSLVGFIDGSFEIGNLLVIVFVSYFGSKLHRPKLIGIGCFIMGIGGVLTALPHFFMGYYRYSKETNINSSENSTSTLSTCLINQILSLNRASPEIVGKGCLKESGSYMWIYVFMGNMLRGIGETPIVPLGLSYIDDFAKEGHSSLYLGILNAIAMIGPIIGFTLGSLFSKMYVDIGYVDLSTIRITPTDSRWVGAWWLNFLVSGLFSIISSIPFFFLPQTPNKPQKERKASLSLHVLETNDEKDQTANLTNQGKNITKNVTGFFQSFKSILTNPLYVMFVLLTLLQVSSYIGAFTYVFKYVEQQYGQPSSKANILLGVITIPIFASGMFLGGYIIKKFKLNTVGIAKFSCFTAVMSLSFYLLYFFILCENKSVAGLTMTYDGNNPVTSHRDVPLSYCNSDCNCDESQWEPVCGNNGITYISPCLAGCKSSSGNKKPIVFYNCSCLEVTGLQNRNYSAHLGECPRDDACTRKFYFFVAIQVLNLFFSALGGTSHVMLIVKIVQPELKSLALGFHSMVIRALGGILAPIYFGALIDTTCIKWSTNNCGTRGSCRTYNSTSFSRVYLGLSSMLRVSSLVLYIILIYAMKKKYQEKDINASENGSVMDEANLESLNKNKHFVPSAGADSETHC

[3] = molecular target: T4, Solute carrier organic anion transporter family member 1B1 (Homo sapiens, UniProt Q9Y6L6); experiment: Inhibition of human liver OATP1B1 expressed in HEK293 Flp-In cells assessed as reduction in E17-betaG uptake by scintillation counting; type: ADME, cell-based
T4 sequence (Q9Y6L6 whole entry): T3 sequence (Q9Y6L6 whole entry)

[4] = molecular target: T1, Solute carrier organic anion transporter family member 2B1; experiment: Inhibition of human liver OATP2B1 expressed in HEK293 Flp-In cells assessed as reduction in [3H]E3S uptake incubated for 5 mins by scintillation counting; type: ADME, cell-based
[5] = Fraction unbound in plasma; type: ADME, cell-free
[6] = molecular target: T4, Solute carrier organic anion transporter family member 1B1; experiment: as §1; conditions: hek293, 20 µM
OATP1B3 = molecular target: T5, OATP1B3 (Homo sapiens, UniProt Q9NPD5); experiment: Activity at human liver OATP1B3 expressed in HEK293 Flp-In cells; type: ADME, cell-based; conditions: HEK293 Flp-In cells expressing OATP1B3
T5 sequence (Q9NPD5 whole entry): T2 sequence (Q9NPD5 whole entry)

[7] = molecular target: T2, Solute carrier organic anion transporter family member 1B3; experiment: Ratio of Vmax to Km for human liver OATP1B3 expressed in HEK293 Flp-In cells assessed per mg protein; type: ADME, cell-based
[8] = molecular target: T2, Solute carrier organic anion transporter family member 1B3; experiment: Activity at human liver OATP1B3 expressed in HEK293 Flp-In cells assessed as rate of compound transport per mg of protein; type: ADME, cell-based
[9] = HEK293 Flp-In cells expressing OATP1B1, probe E17-betaG

Structure (SMILES)	INH [1]	INH [2]	inhibition at 20 µM (OATP1B1; [9])	further results
C[n+]1ccccc1	12.8%	-2.3%	27.9%	–
C[n+]1ccc(-c2ccccc2)cc1	2.4%	10.8%	14.2%	–
CCOc1ccc(-c2nc3cc(-c4nc5cc(N6CCN(C)CC6)ccc5[nH]4)ccc3[nH]2)cc1	12.7%	–	–	IC50 [3]: 19 µM; inhibition at 20 µM (OATP1B1; hek293): 48.1%
C[n+]1cc2c3c(ccc2c2ccc4cc5c(cc4c21)OCO5)OCO3	15%	2.9%	-0.2%	–
CC(=O)Oc1ccc2c(c1)Oc1cc(OC(C)=O)ccc1C21OC(=O)c2cc(C(=O)O)ccc21	-24.9%	71.1%	70.7%	–
N[C@@H]1C[C@H]1c1ccccc1.N[C@H]1C[C@@H]1c1ccccc1 (relative stereo) [TRANYLCYPROMINE]	15.5%	-9.3%	–	inhibition at 20 µM (OATP1B1; hek293): -9.5%
Cc1ccc(-c2cc(C(F)(F)F)nn2-c2ccc(S(N)(=O)=O)cc2)cc1 [CELECOXIB]	-69%	22.3%	–	inhibition at 20 µM (OATP1B1; hek293): -3.3%
COc1ccc2c(c[n+](C)c3c4cc5c(cc4ccc23)OCO5)c1OC [CHELERYTHRINE]	13.1%	24.9%	-0.7%	–
CCN(CC)CCCC(C)Nc1ccnc2cc(Cl)ccc12 (stereo unspecified) [CHLOROQUINE]	23.5%	-7.2%	-1.4%	–
CC[C@H]1OC(=O)[C@H](C)[C@@H](O[C@H]2C[C@@](C)(OC)[C@@H](O)[C@H](C)O2)[C@H](C)[C@@H](O[C@@H]2O[C@H](C)C[C@H](N(C)C)[C@H]2O)[C@](C)(OC)C[C@@H](C)C(=O)[C@H](C)[C@@H](O)[C@]1(C)O [CLARITHROMYCIN]	5.1%	53.8%	73.1%	–
COc1cccc2c1C(=O)c1c(O)c3c(c(O)c1C2=O)C[C@@](O)(C(=O)CO)C[C@@H]3O[C@H]1C[C@H](N)[C@H](O)[C@H](C)O1 [DOXORUBICIN]	49.9%	26.6%	-5.8%	–
C#Cc1cccc(Nc2ncnc3cc(OCCOC)c(OCCOC)cc23)c1 [ERLOTINIB]	93.7%	27.5%	–	IC50 [4]: 0.55 µM; Cp(f) [5]: 0.4 µM; INH [6]: 10.6%
C[C@]12CC[C@@H]3c4ccc(O)cc4CC[C@H]3[C@@H]1CC[C@@H]2O[C@@H]1O[C@H](C(=O)O)[C@@H](O)[C@H](O)[C@H]1O [ESTRADIOL 17B GLUCURONIDE]	-12.2%	69%	67.9%	Km (OATP1B3): 11.7 µM; Vmax/Km [7]: 0.86 µL/min; Vmax [8]: 10.12 pmol/min
C[C@H](CCC(=O)NCC(=O)O)[C@H]1CC[C@H]2[C@@H]3[C@H](O)C[C@@H]4C[C@H](O)CC[C@]4(C)[C@H]3C[C@H](O)[C@]12C [GLYCOCHOLIC ACID]	-9.8%	29%	66.4%	–
N[C@@H](Cc1cc(I)c(Oc2cc(I)c(O)c(I)c2)c(I)c1)C(=O)O [LEVOTHYROXINE]	63.7%	11.4%	-13.1%	–
CC1COc2c(N3CCN(C)CC3)c(F)cc3c(=O)c(C(=O)O)cn1c23 (stereo unspecified) [OFLOXACIN]	18.4%	24.5%	-8.2%	–
CCCc1nc(C(C)(C)O)c(C(=O)OCc2oc(=O)oc2C)n1Cc1ccc(-c2ccccc2-c2nnn[nH]2)cc1 [OLMESARTAN MEDOXOMIL]	-7.9%	–	60.4%	–
Cc1nccn1CC1CCc2c(c3ccccc3n2C)C1=O (stereo unspecified) [ONDANSETRON]	-8.7%	-3.6%	4.8%	–
S=C=NCCc1ccccc1 [PHENETHYLISOTHIOCYANATE]	-32%	12.3%	-16.4%	–
CC[C@H](C)C(=O)O[C@H]1C[C@H](O)C=C2C=C[C@H](C)[C@H](CC[C@@H](O)C[C@@H](O)CC(=O)O)[C@H]21 [PRAVASTATIN]	36.8%	5.4%	–	IC50 [3]: 3.6 µM; INH [6]: 52.2%
CSCC[C@H](NC(=O)[C@H](Cc1ccc(OS(=O)(=O)O)cc1)NC(=O)[C@@H](N)CC(=O)O)C(=O)NCC(=O)N[C@@H](Cc1c[nH]c2ccccc12)C(=O)N[C@@H](CCSC)C(=O)N[C@@H](CC(=O)O)C(=O)N[C@@H](Cc1ccccc1)C(N)=O [SINCALIDE]	60.1%	96.9%	89.3%	–
C[C@H](CCC(=O)NCCS(=O)(=O)O)[C@H]1CC[C@H]2[C@@H]3CC[C@@H]4C[C@H](O)CC[C@]4(C)[C@H]3C[C@H](O)[C@]12C [TAURODEOXYCHOLIC ACID]	85.3%	61.4%	81.7%	–
